The source of these data is US20070244097A1 (priority 2003, published 2007).

The assay concerns the target α7 nAChR subtype (Rattus norvegicus, UniProt Q05941). Type of assay: binding. Particulars: read-out: KD (saturation curve, one site model).

Chain of α7 nAChR subtype (Q05941 23-502 limits assumed): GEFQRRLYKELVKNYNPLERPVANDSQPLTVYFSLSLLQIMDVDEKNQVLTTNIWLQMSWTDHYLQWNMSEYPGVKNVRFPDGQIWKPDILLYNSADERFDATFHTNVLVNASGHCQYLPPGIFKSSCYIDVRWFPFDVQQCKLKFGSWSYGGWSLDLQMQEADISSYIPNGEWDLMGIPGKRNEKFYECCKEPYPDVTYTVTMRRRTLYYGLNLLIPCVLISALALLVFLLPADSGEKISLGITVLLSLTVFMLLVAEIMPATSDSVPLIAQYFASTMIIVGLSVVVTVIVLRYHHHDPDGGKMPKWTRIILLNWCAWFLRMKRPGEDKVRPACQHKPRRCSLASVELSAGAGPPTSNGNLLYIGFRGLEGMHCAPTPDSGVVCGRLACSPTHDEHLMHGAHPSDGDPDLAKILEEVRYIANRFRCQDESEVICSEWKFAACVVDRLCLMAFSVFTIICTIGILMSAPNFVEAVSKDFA

On to ^125I-α-Bungarotoxin [^125I-α-BTX], for which the Kd stood at 1.67 nM.
